27 compounds from ChEMBL document CHEMBL1136230, “Antiallergic principles from Alpinia galanga: structural requirements of phenylpropanoids for inhibition of degranulation and release of TNF-alpha and IL-4 in RBL-2H3 cells” (Bioorg Med Chem Lett, 2003) can be followed below.

The subject of test [1] is RBL-2H3. Nature of the test: Percentage inhibition against release of beta-hexosaminidase from RBL-2H3 cells at 100 uM from control. Type of test: functional. The note with it: Rattus norvegicus.
The test system of test [2] is RBL-2H3. In words: Percentage inhibition against antigen-induced IL-4 production in RBL-2H3 cells at 0 uM concentration. The test is classed as functional, Rattus norvegicus.
Test [3] concerns RBL-2H3. In words: Percentage inhibition against antigen-induced IL-4 production in RBL-2H3 cells at 3 uM concentration. The test is classed as functional. As to conditions: Rattus norvegicus.
Test [4] concerns RBL-2H3. Nature of the test: Inhibitory activity against IL-4 production in RBL-2H3 cells was determined. The note with it: Rattus norvegicus. The test is classed as functional, cell-based.
The test system of test [5] is RBL-2H3. In words: Percentage inhibition against antigen-induced IL-4 production in RBL-2H3 cells at 30 uM concentration. The note with it: Rattus norvegicus. The test is classed as functional.
Test [6] deals with Mus musculus. In words: In vivo inhibitory activity against leakage of dye on ear PCA reaction 30 min after 6.25 mg/kg oral administration in mice. The test is classed as functional. Further details: scale not given: the % may be the effect or the level left.
Test [7] concerns RBL-2H3. In words: Percentage inhibition against antigen-induced TNF-alpha production in RBL-2H3 cells at 0 uM concentration. The test is classed as functional, Rattus norvegicus.
The subject of test [8] is RBL-2H3. Nature of the test: Percentage inhibition against antigen-induced TNF-alpha production in RBL-2H3 cells at 3 uM concentration. The test is classed as functional. The note with it: Rattus norvegicus.
Test [9] relates to RBL-2H3. In words: Inhibitory activity against release of beta-hexosaminidase from RBL-2H3 cells. Type of test: functional, cell-based. The note with it: Rattus norvegicus.
Test [10] concerns RBL-2H3. In words: Percentage inhibition against antigen-induced IL-4 production in RBL-2H3 cells at 10 uM concentration. Type of test: functional. The note with it: Rattus norvegicus.
For test [11], the system named is RBL-2H3. In words: Percentage inhibition against antigen-induced IL-4 production in RBL-2H3 cells at 100 uM concentration. Type of test: functional. The note with it: Rattus norvegicus.
Test [12] deals with RBL-2H3. Nature of the test: Inhibitory activity against TNF-alpha production in RBL-2H3 cells was determined. The test is classed as functional, cell-based. The note with it: Rattus norvegicus.
In test [13] the test system is Mus musculus. In words: In vivo inhibitory activity against leakage of dye on ear PCA reaction 30 min after 25 mg/kg oral administration in mice. The test is classed as functional. Details: scale not given: the % may be the effect or the level left.
Test [14] concerns Mus musculus. Nature of the test: In vivo inhibitory activity against leakage of dye on ear PCA reaction 30 min after 50 mg/kg oral administration in mice. The test is classed as functional. Further details: scale not given: the % may be the effect or the level left.
Test [15] deals with RBL-2H3. In words: Percentage inhibition against antigen-induced TNF-alpha production in RBL-2H3 cells at 30 uM concentration. Type of test: functional. As to conditions: Rattus norvegicus.
For test [16], the system named is RBL-2H3. In words: Percentage inhibition against antigen-induced TNF-alpha production in RBL-2H3 cells at 10 uM concentration. The note with it: Rattus norvegicus. The test is classed as functional.
Test [17] deals with Mus musculus. In words: In vivo inhibitory activity against leakage of dye on ear PCA reaction 30 min after 12.5 mg/kg oral administration in mice. Details: scale not given: the % may be the effect or the level left. The test is classed as functional.
Test [18] deals with RBL-2H3. In words: Percentage inhibition against antigen-induced TNF-alpha production in RBL-2H3 cells at 100 uM concentration. The test is classed as functional. The note with it: Rattus norvegicus.
For test [19], the system named is Mus musculus. Nature of the test: In vivo inhibitory activity against leakage of dye on ear PCA reaction 30 min after 100 mg/kg oral administration in mice. Details: scale not given: the % may be the effect or the level left. The test is classed as functional.
Test [20] relates to Mus musculus. In words: In vivo inhibitory activity against leakage of dye on ear PCA reaction 30 min after 400 mg/kg oral administration in mice. The test is classed as functional. Further details: scale not given: the % may be the effect or the level left.
Test [21] concerns Mus musculus. Nature of the test: In vivo inhibitory activity against leakage of dye on ear PCA reaction 30 min after 200 mg/kg oral administration in mice. The test is classed as functional. Details: scale not given: the % may be the effect or the level left.

Where only a bound is given, the exact number is not on record here.

As to `C=C[C@H](OC(C)=O)c1ccccc1`, the inhibition at 100 µM with RBL-2H3 [1] was found to be 9%.

Consider `C=CCc1ccc(OC(C)=O)cc1`, for which the inhibition at 100 µM in the test on RBL-2H3 [1] came to 11%.

As to `OC/C=C/c1ccc(O)cc1`, the inhibition at 100 µM with RBL-2H3 [1] was determined as 2%.

As for `C=C[C@H](OC(C)=O)c1ccc(OC(C)=O)c(OC)c1`, the Inhibition with RBL-2H3 [2] and with RBL-2H3 [7] was 0% each time. For the same compound, the inhibition at 3 µM came out at 39.4% in the test with RBL-2H3 [3] and 25% in the test with RBL-2H3 [8]. For the same compound, the IC50 with RBL-2H3 [4] is 12 µM; with RBL-2H3 [9], 19 µM; with RBL-2H3 [12], 5.8 µM. Moreover, the inhibition at 30 µM was determined as 98.1% in the test on RBL-2H3 [5] and 101% with RBL-2H3 [15]. Moreover, the Control in the test on Mus musculus [6] came out at 65.2%; in the test on Mus musculus [13], 54.7%; in the test on Mus musculus [14], 37.8%; in the test with Mus musculus [17], 58.4%. The inhibition at 10 µM in the test on RBL-2H3 [10] worked out at 45.9%; with RBL-2H3 [16], 89%. Besides, the inhibition at 100 µM in the test on RBL-2H3 [11] stood at 99.9%.

Regarding `CC(=O)OC/C=C/c1ccc(O)cc1`, the inhibition at 100 µM in the test with RBL-2H3 [1] was determined as 6%.

With `C=CCc1ccc(O[C@H]2O[C@@H](CO)[C@H](O)[C@H](O)[C@@H]2O)cc1`, in the test on RBL-2H3 [1], the inhibition at 100 µM was 0%.

Consider `C=C[C@H](O)c1ccc(OC(C)=O)cc1`, for which the inhibition at 100 µM in the test on RBL-2H3 [1] was found to be 4%.

As to `C=C[C@H](O)c1ccccc1`, the inhibition at 100 µM in the test with RBL-2H3 [1] was determined as 3%.

`CC[C@H](OC(C)=O)c1ccc(OC(C)=O)cc1`: in the test with RBL-2H3 [9], the IC50 is 60 µM.

In the case of `CC(=O)OC/C=C/c1ccc(OC(C)=O)cc1`, in the test on RBL-2H3 [9], the IC50 is above 100 µM. Besides, in the test on RBL-2H3 [1], the inhibition at 100 µM was 21%.

For the compound `O=C(O)/C=C/c1cccc(O)c1`, the inhibition at 100 µM in the test with RBL-2H3 [1] was 1%.

As to `C=C[C@H](OC(C)=O)c1ccc(OC(C)=O)cc1` [1'-ACETOXYCHAVICOL ACETATE], the Inhibition with RBL-2H3 [2] and in the test with RBL-2H3 [7] was 0% in each case. Further, the inhibition at 3 µM was 39.4% with RBL-2H3 [3] and 5.4% in the test with RBL-2H3 [8]. The half-inhibitory concentration (IC50) in the test on RBL-2H3 [4] was 12 µM; in the test on RBL-2H3 [9], 15 µM; in the test with RBL-2H3 [12] it was 17 µM. In addition, the values for the inhibition at 30 µM in the test with RBL-2H3 [5] and with RBL-2H3 [15] were 98.1% and 66.9%, respectively. Moreover, the Control with Mus musculus [6] turned out to be 72.4%; in the test with Mus musculus [13] it was 49.5%; in the test with Mus musculus [14], 44.3%; in the test on Mus musculus [17], 65.5%. The results for the inhibition at 100 µM in the test with RBL-2H3 [18] and with RBL-2H3 [11] were 87.2% and 99.9%, respectively. Moreover, the inhibition at 10 µM came out at 45.9% in the test with RBL-2H3 [10] and 32.4% in the test with RBL-2H3 [16].

For the compound `COc1ccc(/C=C/C(=O)O)cc1` [4-METHOXYCINNAMIC ACID], the inhibition at 100 µM with RBL-2H3 [1] was determined as 11%.

For `O=C(O)/C=C/c1ccc(O)c(O)c1` [CAFFEIC ACID], the inhibition at 100 µM in the test with RBL-2H3 [1] is 5%.

As for `C=CCc1ccc(O)cc1` [CHAVICOL], the inhibition at 100 µM with RBL-2H3 [1] is 3%.

Regarding `O=C(O)/C=C/c1ccccc1` [CINNAMIC ACID], the inhibition at 100 µM in the test with RBL-2H3 [1] turned out to be 7%.

On to `O=C(O)/C=C/c1ccc(O)cc1` [COUMARIC ACID], for which the inhibition at 100 µM with RBL-2H3 [1] worked out at 6%.

As to `C=CCc1ccc(O)c(OC)c1` [EUGENOL], the inhibition at 100 µM in the test with RBL-2H3 [1] was 4%.

Turning to `C=CCc1ccc(OC(C)=O)c(OC)c1` [EUGENYL ACETATE], the inhibition at 100 µM in the test with RBL-2H3 [1] was found to be 9%.

In the case of `C=CCc1ccc(O)c(O)c1` [HYDROXYCHAVICOL], the IC50 with RBL-2H3 [9] was above 100 µM. Further, in the test on RBL-2H3 [1], the inhibition at 100 µM was determined as 17%.

Consider `O=c1cc(-c2ccc(O)c(O)c2)oc2cc(O)cc(O)c12` [LUTEOLIN], for which the Inhibition in the test with RBL-2H3 [2] and in the test with RBL-2H3 [7] was 0% in each case. For the same compound, the inhibition at 3 µM in the test with RBL-2H3 [3] came to 41.6%; in the test on RBL-2H3 [8], 25%. Besides, the IC50 in the test with RBL-2H3 [4] was found to be 3.7 µM; in the test with RBL-2H3 [12], 5.8 µM. In addition, the inhibition at 30 µM in the test with RBL-2H3 [5] was 99.2%; in the test on RBL-2H3 [15], 101%. Besides, the inhibition at 10 µM in the test on RBL-2H3 [10] was determined as 89.4%; in the test with RBL-2H3 [16], 89%.

Turning to `C=CCc1ccc(OC)c(OC)c1` [METHYLEUGENOL], the inhibition at 100 µM with RBL-2H3 [1] was found to be 1%.

Regarding `COc1ccc(/C=C/C(=O)O)cc1OC` [O,O'-DIMETHYLCAFFEIC ACID], the inhibition at 100 µM with RBL-2H3 [1] was 9%.

As to `O=C(O)/C=C/c1ccccc1O` [O-COUMARIC ACID], in the test on RBL-2H3 [1], the inhibition at 100 µM came to 11%.

Regarding `COc1cc(/C=C/C(=O)O)cc(OC)c1O` [SINAPINATE], the inhibition at 100 µM in the test on RBL-2H3 [1] was determined as 10%.

With `COc1ccc(/C=C/C(=O)Nc2ccccc2C(=O)O)cc1OC` [TRANILAST], the Control in the test on Mus musculus [19] was 66%; with Mus musculus [20], 42.7%; in the test with Mus musculus [21] it was 49.8%.

Consider `O=C/C=C/c1ccc(O)cc1` [p-HYDROXYCINNAMALDEHYDE], for which, in the test on RBL-2H3 [9], the IC50 is above 100 µM. The inhibition at 100 µM with RBL-2H3 [1] was 22%.

As a reminder, the inhibition is the change of the read-out against control, counted positive when it falls. By Inhibition is commonly meant the share of the control response that was lost under treatment. For orientation: IC50 means the concentration at which inhibition is half-maximal.
